For test [1], the system named is recipient Lewis rats given donor ACI rat grafts. The test is described as follows: Heterotopic heart transplant rejection model (ACI donor, Lewis recipient). Type of test: in vivo. The conditions noted are these: cyclosporin A only. From the text:
In this assay an increase in allograft survival time corresponds to a decrease in heart transplant rejection in the recipient Lewis rats given donor ACI rat grafts.
Adult male, specific pathogen-free ACI (RT1a) and Lewis (RT1l) rats (Charles River, Boston, Mass.) weighing 200 to 250 g were used as donors and recipients, respectively, in these studies. Vascularized cardiac allografts were heterotopically transplanted into the abdomen of recipient rats using a modification (Nisco, S. et al., (1994), supra) of the technique of Ono and Lindsay (Ono, K. et al., (1969), supra). […] Abdominal allografts were palpated on a daily basis to assess graft function, and rejection was deemed complete when palpable ventricular contractions ceased.
The transplanted hearts were evaluated daily for signs of rejection over the course of the study.

In test [2] the test system is allogeneic heart transplants. Put plainly: Histology, immunohistochemistry (ED1) and rejection score of allogeneic heart transplants 3 days after transplantation. Type of test: in vivo, rat.
Description: Transplanted hearts were removed under deep anesthesia, quickly blotted free of blood, weighed, and then processed as needed for histology and immunohistochemistry. The organs were cut into 1-mm slices and either immersion-fixed in 4% formaldehyde in phosphate buffered saline (PBS) pH 7.35, (PBS: 99 mM NaH2PO4, 108 mM NaH2PO4 and 248 mM NaCl) for 24 h or fixed in methacarn for 8 h and embedded in paraffin. Light microscopy was performed on 3 μm sections stained by periodic acid-Schiff or Goldner-Elastica. Light microscopy was performed on allogeneic heart transplants 3 days after transplantation.
The ED1 monoclonal antibody (Serotec/Camon) was used on methacarn fixed paraffin embedded tissue (3 μm) to stain for rat monocytes/macrophage cells. An alkaline phosphatase anti-alkaline phosphatase detection system was used for visualization (Dako). Controls that omit the first or second antibody for each section were performed for negative staining. […]
Mild acute rejection (score: 1) was characterized by a sparse interstitial mononuclear infiltrate often accentuated in perivascular spaces. […] The rejection score was calculated for every tissue block and an average score was calculated from the different blocks for every transplanted heart as rejection processes tended to be focal.

Regarding cyclosporin A, the “mean allograft survival time” value turned out to be 7.3±0.5 days in test [1] (2.5 mg/kg by gavage once per day for duration of study) and 12.9±0.7 days in test [1] (10 mg/kg by gavage once per day for four days). In test [2], the “immunohistology for ED1-positive monocytes/macrophages in allogeneic heart transplants” value is “inflammatory cell infiltrate was focal and was composed primarily of ED-1 positive cells”.

These data come from patent US6740636B2 (priority 2000, dated 2004).
